Measured values: US20200222347A1, “ANTIMICROBIALS AND METHODS OF USE THEREOF” (priority 2013, published 2020)
Entries after “also recorded” stand apart in the source; their conditions may differ.

What was measured:
Legionella 43662 = format: cell-based
EGF = assay: Local growth hormones in tape stripped mouse skin wound by ELISA (FIG. 11, FIG. 13, Example 5); format: in vivo, mice
Protocol: (§1) Four different conditions were used: mice had back skin tape stripped and the stripped site (wound) was infected with P. aeruginosa; mice had back skin stripped and were not infected, mice had taped stripped, infected and treated with PCA, mice were tape stripped, uninfected, and treated with PCA. When used, the PCA test reagent was applied topically in an aqueous solution on the stripped site at two hours and 24 hours.
(§2) The testing reagents consisted of and PCA formulated at one dose, 25 mM, in an aqueous solution. Levels of IGF-1, TGF-β, and EGF levels in the skin tissue at 48 hours were measured by ELISA. There were two control groups; the stripped skin and the stripped skin and infected.

IGF-1 = assay: as above; format: in vivo, mice
Protocol: as §1, §2

TGF-β = assay: as above; format: in vivo, mice
Protocol: as §1, §2

[1] = test system: Propionibacterium acnes (1100; ATCC 6919); assay: BALB/c mice intradermal infection, topical treatment, Example 9; format: in vivo; details: for effect on P. acnes CFU burden in mouse skin: 96 hours
Protocol: BALB/c mice were infected with Propionibacterium acnes via intradermal injection and treated topically with varying concentrations of a novel test compound, PCA, at 2, 24, 48 and 72 hours following challenge. Efficacy was evaluated by CFU analysis from skin samples harvested at 96 hours post challenge.
Female BALB/c mice, ordered from Harlan and weighing 17-19 g, were acclimated to housing conditions and handled in accordance with AUP number TP-18-13. The animals were acclimated for 4 days prior to bacterial challenge. Only animals deemed healthy and fully immunocompetent were included in this study. Cages were prepared with 2 mice per cage.
On Day −1, each mouse was anesthetized in an Isoflurane induction chamber and the lesion site was cleared of hair. An area of approximately 2.0 cm×2.0 cm of skin on the dorsal area of each mouse was cleared through use of the depilatory agent Nair®.
Cultures were grown for 96 hrs at 37° C. in an anaerobic atmosphere on TS agar plates supplemented with 5% sheep blood cells. The culture was aseptically swabbed and transferred to tubes of TS broth and allowed to grow for 72 hours. The cultures were diluted to provide challenge inoculum of approximately 6.0-7.0 log 10 CFU per 50 μL in PBS. On Day 0 each mouse was anesthetized using Isoflurane. Each animal on the study was administered 50 μL of the bacterial suspension via intradermal injection in the dorsal area that was previously denuded of hair. The final CFU count from the challenge suspension determined that 6.0 log 10 CFU per mouse were delivered.
The test treatment, PCA, was provided by the study Sponsor and formulated using sterile water. Treatments were administered topically in a dose volume of 0.1 mL. Treatments were given at 2, 24, 48 and 72 hours post challenge at 60 mg/kg (78 mM; Group 3), 30 mg/kg (39 mM; Group 4) or 15 mg/kg (19.5 mM; Group 5).
At 96 hours following challenge, mice were humanely euthanized and skin was aseptically removed from the infection site. Skin samples were placed in homogenation vials with 2.0 mL PBS, weighed and homogenized using a mini-bead beater. Homogenate was serially diluted and plated anaerobically on TSA agar plates for enumeration of colony forming units per gram of skin tissue.

[2] = Amount of PCA that can be dissolved; format: physicochemical
Protocol: For instance the dose used on an open rodent taped stripped skin would be conditioned by the wound's tolerance of the vehicle which in this case would be water, normal saline or like. The amount of PCA for instance that can be dissolved in water is 1.24 grams per 100 ml. In the rodent the effective dose of C-3-G and PCA were expressed in […] (mM) as 25 to 200 mM dose. Conversion factors are necessary to make comparisons to larger doses used in other applications. 78 mM (mmole/L) PCA would be 12.021 g PCA per Liter. Therefore 25 mM/L would be 3.852 grams per liter or […]. The fluid applied was […] or 0.1 milliliter. Therefore, for example, the dose of PCA that was bactericidal on Pseudomonas aeruginosa on taped stripped rodent skin was 0.00038 grams. When treating intact normal human skin as in the Loma Linda Medical School testing, it was shown the 1.24 gram in 100 ml of water would only decrease the number of colonies of Propionibacterium acnes. Note that there was no skin penetration properties to water by this method. The increase of PCA concentration was possible to as much as 17% when in composition of matter was 70% isopropyl alcohol with propylene glycol and essences of peppermint oil. This composition had skin penetration properties. However the amount of liquid applied was no more than one milliliter by cotton swab. Therefore the topical dose on intact human skin was […] (estimated). This is many times that required for traumatized taped stripped skin.
For compositions applied to the skin or a bandage the PCA crystals need to be dissolved in a liquid. […] The use of isopropyl alcohol in the combination was not an obvious choice because isopropyl alcohol alone only is marginally effective in killing bacteria. So even after using isopropyl alcohol to dissolve the PCA, the inventor discovered that even at 10% PCA in isopropyl alcohol, the composition was only marginally effective. […]

[3] = test system: skin stripped wounds infected with Pseudomonas aeruginosa (ATCC 27853); assay: Histology of stripped, infected and treated skin wound, Example 6; details: 48 hours
[4] = 25 mM at 2 and 24 hours, tape stripped and infected with P. aeruginosa, 48 hours (FIG. 13)

## O=C(O)c1ccc(O)c(O)c1 [PCA, Protocatechuic acid]
Legionella 43662
  effectiveness against Legionella 43662: effective
EGF; [4]
  EGF level in skin tissue: decreased; also recorded: lowest
EGF; 25 mM, site of the untreated skin wound (FIG. 11C)
  local growth hormone level of EGF: increased
IGF-1; [4]
  IGF-1 level in skin tissue: moderately elevated; also recorded: optimizes the IGF-1 production
IGF-1; 25 mM, site of the untreated skin wound (FIG. 11A)
  local growth hormone level of IGF-1: increased
IGF-1; IGF-1, TGF-β and EGF together, rodent skin wound
  optimal dose to optimize local growth hormones: Approximately 25 mM
TGF-β; [4]
  TGF-β level in skin tissue: decreased
TGF-β; 25 mM, site of the untreated skin wound (FIG. 11B)
  local growth hormone level of TGF-Beta: increased
[1]; 15 mg/kg (19.5 mM) topical
  effect on P. acnes CFU burden in mouse skin: no such effect; also recorded: statistically non-different
[1]; 30 mg/kg (39 mM) topical
  effect on P. acnes CFU burden in mouse skin: no such effect; also recorded: statistically non-different
[1]; 60 mg/kg (78 mM) topical at 2, 24, 48 and 72 hours, harvest 96 hours
  reduction of CFU burden in skin vs untreated: approximately 1 log 10
[1]; 60 mg/kg (78 mM) topical, P=0.0285 vs untreated
  effect on P. acnes CFU burden in mouse skin: bacteriostatic effect; also recorded: significant reduction
[2]; 70% isopropyl alcohol with propylene glycol and essences of peppermint oil
  concentration possible in solution: ≤ 17%
[2]; Water
  amount that can be dissolved in water: 1.24 grams per 100 ml
  concentration achieved when dissolving in water: ≤ 1.24%
[3]; 25 mM
  collagen between the epidermis and dermis: collagen proliferation between the epidermis and dermis; also recorded: collagen layer formation
  dermal layer: thickened
  hair follicles: prominent with multiple cellular lining
  inflammation: abundant inflammation
  surface cellularity: abundant and multiple cell layers
  vascularity: moderate vascularity
[3]; 50 mM
  dermal layer: thicker
  hair follicles: double layer of cells
  inflammation: increased in the dermis and below the muscle layer
  surface cellularity: covered with multiple layers of cells
  vascularity: increased vascularity
[3]; PCA 25 and 50 mM, C3G 100 and 200 mM
  tissue repair / healing response by histology: stimulated tissue repair
